Data taken from patent US10399932B2, “Inhibitors of indoleamine-2,3-dioxygenase for the treatment of cancer” (BRISTOL-MYERS SQUIBB COMPANY, priority 2015, dated 2019).

biological target: human IDO1 (Homo sapiens, UniProt P14902); assay: Assessment of human IDO-1 inhibitory activity in HEK cells (human IDO1/HEK293 cells, Ehrlich reagent, absorbance at 490 nm); type: cell-based; parameters: expressed in transfected cells; details: In Vitro Potency in the HEK Human IDO-1 Cellular Assay
Outline: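 Stable human IDO1-expressing HEK293 cells treated with compound for 20 h at 37 °C in phenol red-free RPMI/10% FBS. Stopped with 0.2% TCA (final) and heated 30 min at 50 °C; supernatant mixed with Ehrlich reagent, absorbance read at 490 nm. IC50 normalised to DMSO (0%) and 500 nM reference standard (100% inhibition).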

Sequence of human IDO1 (P14902 whole entry): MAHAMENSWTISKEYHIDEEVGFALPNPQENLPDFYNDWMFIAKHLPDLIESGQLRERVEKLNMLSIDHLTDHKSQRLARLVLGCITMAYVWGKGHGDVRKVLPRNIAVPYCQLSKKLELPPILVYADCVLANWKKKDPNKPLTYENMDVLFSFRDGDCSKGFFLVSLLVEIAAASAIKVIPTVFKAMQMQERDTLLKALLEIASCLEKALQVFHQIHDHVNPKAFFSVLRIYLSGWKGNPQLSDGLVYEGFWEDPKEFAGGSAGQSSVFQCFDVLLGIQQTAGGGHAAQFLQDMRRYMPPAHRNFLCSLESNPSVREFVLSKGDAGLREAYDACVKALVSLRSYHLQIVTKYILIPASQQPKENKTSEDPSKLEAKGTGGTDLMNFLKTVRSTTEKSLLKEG

| Structure (SMILES) | IC50 [nM] |
| --- | --- |
| CCC(CC(=O)O)c1ccc(N2CCC[C@H]2C(C)(C)O)c(NC(=O)Nc2ccc(Cl)cc2F)c1 (single isomer, unassigned) [Example 828] | > 50 |
| CCc1ccc(Nc2cc(C(C)CC(=O)O)ccc2N2C[C@@H](C)O[C@@H](C)C2)cc1 (single isomer, unassigned) [Example 746] | > 50 |
| CCC(CC(=O)O)c1ccc(N2CCC[C@H]2C(C)(C)O)c(NC(=O)Nc2ccc(OC)cc2F)c1 (single isomer, unassigned) [Example 830] | > 50 |
| CCC(CC(=O)O)c1ccc(N2CC3CC2CN3Cc2ccccc2)c(NC(=O)Nc2ccc(C)cc2)c1 (single isomer, unassigned) [667 E2] | > 50 |
| CCC(CC(=O)O)c1ccc(N2CCC[C@H]2C(C)(C)O)c(NC(=O)Nc2ccc(OC)cc2)c1 (single isomer, unassigned) [Example 827] | > 50 |
| CC(CC(=O)O)c1ccc(N2CCC[C@H]2C(C)(C)O)c(Nc2ccc(F)cc2)c1 (single isomer, unassigned) [Example 803] | > 50 |

More lines, now with the values ahead:

| IC50 [nM] | Structure (SMILES) |
| --- | --- |
| < 5 | CCC(CC(=O)O)c1cc(F)c(N(CC(C)C)CC(C)C)c(NC(=O)Nc2ccc(Cl)cc2F)c1 (single isomer, unassigned) [Example 981-2] |
| < 5 | Cc1ccc(CC(=O)Nc2cc(C(CC(=O)O)C3CC3)ccc2N(CC(C)C)C2CCCCC2)cc1 (single isomer, unassigned) [Example 1249, 3-(4-(Cyclohexyl(isobutyl)amino)-3-(2-(p-tolyl)acetamido)phenyl)-3-cyclopropylpropanoic acid] |
| < 5 | COCC(CC(=O)O)c1cc(F)c(N(CC(C)C)C2CCCCC2)c(NC(=O)Nc2ccc(Cl)cc2F)c1 (single isomer, unassigned) [Example 1164, 3-(3-(3-(4-chloro-2-fluorophenyl)ureido)-4-(cyclohexyl(isobutyl)amino)-5-fluorophenyl)-4-methoxybutanoic acid] |
| < 5 | COCC(CC(=O)O)c1cc(F)c(N(CC(C)C)C2CCCCC2)c(NC(=O)Nc2ccc(Cl)cc2)c1 (single isomer, unassigned) [Example 1166, 3-(3-(3-(4-chlorophenyl)ureido)-4-(cyclohexyl(isobutyl)amino)-5-fluorophenyl)-4-methoxybutanoic acid] |
| < 50 | COCC(CC(=O)O)c1ccc(N(CC(C)C)C2CCC(OC)CC2)c(NC(=O)Nc2ccc(C)cc2)c1 (racemic) [Example 1147] |
| < 5 | CCOc1ccc(NC(=O)Nc2cc(C(CC)CC(=O)O)c(F)cc2N(CC(C)C)C2CCCCC2)cc1 (single isomer, unassigned) [Example 1109, 3-(4-(Cyclohexyl(isobutyl)amino)-5-(3-(4-ethoxyphenyl)ureido)-2-fluorophenyl) pentanoic acid] |
| < 50 | COCC(CC(=O)O)c1ccc(N(CC(C)C)C2CCCCC2)c(NC(=O)Nc2cc(C)on2)c1 (single isomer, unassigned) [Example 987-2] |
| < 50 | CCN(c1ccc([C@@H](COC)CC(=O)O)cc1Nc1ccc2c(c1)OC(F)(F)O2)C1CCOCC1 (single isomer, unassigned) [Example 378] |
| < 5 | CCOc1cc(Nc2cc(C(CC)CC(=O)O)ccc2N(CC(C)C)C2CCCCC2)ccc1Cl (single isomer, unassigned) [Example 646, 3-(3-((4-chloro-3-ethoxyphenyl)amino)-4-(cyclohexyl(isobutyl)amino)phenyl)pentanoic acid] |
